Values of other authors as cited in patent US20100216762A1, “Agonists and Antagonists of the S1P5 Receptor, and Methods of Use Thereof” (ABBOTT LABORATORIES, priority 2009, published 2010).

Key:
[1] = spared-nerve injury model of neuropathic pain

Row | SMILES | nociception in the formalin model | nociceptive behavior in the spared-nerve injury model [1] | Aβ-induced migration of monocytes to sites of injury (monocytes)
1 | FC(F)(F)c1cccc(-c2noc(-c3cc(-c4ccccc4)c(C(F)(F)F)s3)n2)c1 [SEW2871] | lack of activity |  | 
2 | CCCCCCCCc1ccc(CCC(N)(CO)CO)cc1 [FTY720] | anti-nociceptive | reduced nociceptive behavior | inhibits that migration
